This note sets out measurements from ChEMBL document CHEMBL3392967, “Phosphatidylinositol 3-Kinase (PI3K) and phosphatidylinositol 3-kinase-related kinase (PIKK) inhibitors: importance of the morpholine ring” (J Med Chem, 2015).

Series [1] concerns the target T1, DNA-dependent protein kinase catalytic subunit (Homo sapiens, UniProt P78527). Description: Inhibition of DNA-PK (unknown origin).
Series [2] has as its target Phosphatidylinositol 4,5-bisphosphate 3-kinase catalytic subunit alpha isoform (Homo sapiens, UniProt P42336).
Series [3] concerns the target T1, DNA-dependent protein kinase catalytic subunit. Description: Inhibition of DNA-PK purified from HeLa nuclear extracts assessed as EPPLSQEAFADLWKKR peptide substrate phosphorylation.
Series [4] has as its target Serine/threonine-protein kinase mTOR (Homo sapiens, UniProt P42345). The series can be described thus: Inhibition of mTOR (unknown origin).
Series [5] in a line: Oral bioavailability in mouse. It is filed as ADME, organism-based. The conditions noted are these: in vivo.
For another series, the system named is MDA-MB-361. Description: cells. As to conditions: Homo sapiens.
Series [6] in a line: Half life in mouse plasma at 25 mg/kg single dose. More on the design: dose 25 mg/kg. It is filed as ADME, organism-based.
The target in series [7] is Serine/threonine-protein kinase mTOR (Rattus norvegicus, UniProt P42346). Description: Inhibition of rat derived mTOR using [gamma32P]ATP.
Series [8] addresses T2, Phosphatidylinositol 4,5-bisphosphate 3-kinase catalytic subunit delta isoform (Homo sapiens, UniProt O00329).
T2 sequence (O00329 whole entry): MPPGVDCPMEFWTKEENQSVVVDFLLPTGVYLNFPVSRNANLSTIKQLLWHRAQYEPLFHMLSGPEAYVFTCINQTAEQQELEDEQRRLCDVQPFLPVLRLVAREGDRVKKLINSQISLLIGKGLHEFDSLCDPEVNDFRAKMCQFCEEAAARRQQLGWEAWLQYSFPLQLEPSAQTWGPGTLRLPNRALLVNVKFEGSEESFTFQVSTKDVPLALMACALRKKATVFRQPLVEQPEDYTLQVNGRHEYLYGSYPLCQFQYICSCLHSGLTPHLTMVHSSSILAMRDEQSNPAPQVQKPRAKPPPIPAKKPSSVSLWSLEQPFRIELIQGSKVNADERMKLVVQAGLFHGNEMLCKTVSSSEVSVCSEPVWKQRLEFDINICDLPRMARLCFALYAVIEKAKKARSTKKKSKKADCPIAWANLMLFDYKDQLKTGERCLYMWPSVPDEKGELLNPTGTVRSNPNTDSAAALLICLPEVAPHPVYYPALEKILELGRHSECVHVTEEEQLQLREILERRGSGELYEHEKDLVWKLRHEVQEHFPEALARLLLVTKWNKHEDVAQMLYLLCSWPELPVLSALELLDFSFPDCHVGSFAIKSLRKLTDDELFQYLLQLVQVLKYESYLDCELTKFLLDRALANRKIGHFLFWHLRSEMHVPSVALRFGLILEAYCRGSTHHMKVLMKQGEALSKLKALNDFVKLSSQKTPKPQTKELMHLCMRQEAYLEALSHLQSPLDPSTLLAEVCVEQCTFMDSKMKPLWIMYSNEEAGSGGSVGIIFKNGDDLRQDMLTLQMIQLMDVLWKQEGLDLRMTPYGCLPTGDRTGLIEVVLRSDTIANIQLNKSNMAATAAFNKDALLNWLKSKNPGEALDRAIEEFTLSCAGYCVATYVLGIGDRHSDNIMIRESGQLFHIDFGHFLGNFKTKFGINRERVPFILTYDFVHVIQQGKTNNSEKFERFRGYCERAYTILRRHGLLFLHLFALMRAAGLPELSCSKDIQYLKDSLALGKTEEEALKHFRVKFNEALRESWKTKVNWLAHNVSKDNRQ

Series [9] can be described thus: Inhibition of rapamycin-insensitive mTORC2 (unknown origin). On the set-up: species or system Homo sapiens.
Series [10] in a line: Oral bioavailability in BALB/C mouse. The conditions noted are these: in vivo. It is filed as ADME, organism-based.
Series [11] in a line: Half life in BALB/C mouse. It is filed as ADME, organism-based. The conditions noted are these: in vivo.

Several values for one entry are separate records, joined by “and”; a condition that tells them apart may be missing. Identical values can stand only once. Some results are limits rather than exact numbers.

T1 sequence (P78527 whole entry, canonical isoform): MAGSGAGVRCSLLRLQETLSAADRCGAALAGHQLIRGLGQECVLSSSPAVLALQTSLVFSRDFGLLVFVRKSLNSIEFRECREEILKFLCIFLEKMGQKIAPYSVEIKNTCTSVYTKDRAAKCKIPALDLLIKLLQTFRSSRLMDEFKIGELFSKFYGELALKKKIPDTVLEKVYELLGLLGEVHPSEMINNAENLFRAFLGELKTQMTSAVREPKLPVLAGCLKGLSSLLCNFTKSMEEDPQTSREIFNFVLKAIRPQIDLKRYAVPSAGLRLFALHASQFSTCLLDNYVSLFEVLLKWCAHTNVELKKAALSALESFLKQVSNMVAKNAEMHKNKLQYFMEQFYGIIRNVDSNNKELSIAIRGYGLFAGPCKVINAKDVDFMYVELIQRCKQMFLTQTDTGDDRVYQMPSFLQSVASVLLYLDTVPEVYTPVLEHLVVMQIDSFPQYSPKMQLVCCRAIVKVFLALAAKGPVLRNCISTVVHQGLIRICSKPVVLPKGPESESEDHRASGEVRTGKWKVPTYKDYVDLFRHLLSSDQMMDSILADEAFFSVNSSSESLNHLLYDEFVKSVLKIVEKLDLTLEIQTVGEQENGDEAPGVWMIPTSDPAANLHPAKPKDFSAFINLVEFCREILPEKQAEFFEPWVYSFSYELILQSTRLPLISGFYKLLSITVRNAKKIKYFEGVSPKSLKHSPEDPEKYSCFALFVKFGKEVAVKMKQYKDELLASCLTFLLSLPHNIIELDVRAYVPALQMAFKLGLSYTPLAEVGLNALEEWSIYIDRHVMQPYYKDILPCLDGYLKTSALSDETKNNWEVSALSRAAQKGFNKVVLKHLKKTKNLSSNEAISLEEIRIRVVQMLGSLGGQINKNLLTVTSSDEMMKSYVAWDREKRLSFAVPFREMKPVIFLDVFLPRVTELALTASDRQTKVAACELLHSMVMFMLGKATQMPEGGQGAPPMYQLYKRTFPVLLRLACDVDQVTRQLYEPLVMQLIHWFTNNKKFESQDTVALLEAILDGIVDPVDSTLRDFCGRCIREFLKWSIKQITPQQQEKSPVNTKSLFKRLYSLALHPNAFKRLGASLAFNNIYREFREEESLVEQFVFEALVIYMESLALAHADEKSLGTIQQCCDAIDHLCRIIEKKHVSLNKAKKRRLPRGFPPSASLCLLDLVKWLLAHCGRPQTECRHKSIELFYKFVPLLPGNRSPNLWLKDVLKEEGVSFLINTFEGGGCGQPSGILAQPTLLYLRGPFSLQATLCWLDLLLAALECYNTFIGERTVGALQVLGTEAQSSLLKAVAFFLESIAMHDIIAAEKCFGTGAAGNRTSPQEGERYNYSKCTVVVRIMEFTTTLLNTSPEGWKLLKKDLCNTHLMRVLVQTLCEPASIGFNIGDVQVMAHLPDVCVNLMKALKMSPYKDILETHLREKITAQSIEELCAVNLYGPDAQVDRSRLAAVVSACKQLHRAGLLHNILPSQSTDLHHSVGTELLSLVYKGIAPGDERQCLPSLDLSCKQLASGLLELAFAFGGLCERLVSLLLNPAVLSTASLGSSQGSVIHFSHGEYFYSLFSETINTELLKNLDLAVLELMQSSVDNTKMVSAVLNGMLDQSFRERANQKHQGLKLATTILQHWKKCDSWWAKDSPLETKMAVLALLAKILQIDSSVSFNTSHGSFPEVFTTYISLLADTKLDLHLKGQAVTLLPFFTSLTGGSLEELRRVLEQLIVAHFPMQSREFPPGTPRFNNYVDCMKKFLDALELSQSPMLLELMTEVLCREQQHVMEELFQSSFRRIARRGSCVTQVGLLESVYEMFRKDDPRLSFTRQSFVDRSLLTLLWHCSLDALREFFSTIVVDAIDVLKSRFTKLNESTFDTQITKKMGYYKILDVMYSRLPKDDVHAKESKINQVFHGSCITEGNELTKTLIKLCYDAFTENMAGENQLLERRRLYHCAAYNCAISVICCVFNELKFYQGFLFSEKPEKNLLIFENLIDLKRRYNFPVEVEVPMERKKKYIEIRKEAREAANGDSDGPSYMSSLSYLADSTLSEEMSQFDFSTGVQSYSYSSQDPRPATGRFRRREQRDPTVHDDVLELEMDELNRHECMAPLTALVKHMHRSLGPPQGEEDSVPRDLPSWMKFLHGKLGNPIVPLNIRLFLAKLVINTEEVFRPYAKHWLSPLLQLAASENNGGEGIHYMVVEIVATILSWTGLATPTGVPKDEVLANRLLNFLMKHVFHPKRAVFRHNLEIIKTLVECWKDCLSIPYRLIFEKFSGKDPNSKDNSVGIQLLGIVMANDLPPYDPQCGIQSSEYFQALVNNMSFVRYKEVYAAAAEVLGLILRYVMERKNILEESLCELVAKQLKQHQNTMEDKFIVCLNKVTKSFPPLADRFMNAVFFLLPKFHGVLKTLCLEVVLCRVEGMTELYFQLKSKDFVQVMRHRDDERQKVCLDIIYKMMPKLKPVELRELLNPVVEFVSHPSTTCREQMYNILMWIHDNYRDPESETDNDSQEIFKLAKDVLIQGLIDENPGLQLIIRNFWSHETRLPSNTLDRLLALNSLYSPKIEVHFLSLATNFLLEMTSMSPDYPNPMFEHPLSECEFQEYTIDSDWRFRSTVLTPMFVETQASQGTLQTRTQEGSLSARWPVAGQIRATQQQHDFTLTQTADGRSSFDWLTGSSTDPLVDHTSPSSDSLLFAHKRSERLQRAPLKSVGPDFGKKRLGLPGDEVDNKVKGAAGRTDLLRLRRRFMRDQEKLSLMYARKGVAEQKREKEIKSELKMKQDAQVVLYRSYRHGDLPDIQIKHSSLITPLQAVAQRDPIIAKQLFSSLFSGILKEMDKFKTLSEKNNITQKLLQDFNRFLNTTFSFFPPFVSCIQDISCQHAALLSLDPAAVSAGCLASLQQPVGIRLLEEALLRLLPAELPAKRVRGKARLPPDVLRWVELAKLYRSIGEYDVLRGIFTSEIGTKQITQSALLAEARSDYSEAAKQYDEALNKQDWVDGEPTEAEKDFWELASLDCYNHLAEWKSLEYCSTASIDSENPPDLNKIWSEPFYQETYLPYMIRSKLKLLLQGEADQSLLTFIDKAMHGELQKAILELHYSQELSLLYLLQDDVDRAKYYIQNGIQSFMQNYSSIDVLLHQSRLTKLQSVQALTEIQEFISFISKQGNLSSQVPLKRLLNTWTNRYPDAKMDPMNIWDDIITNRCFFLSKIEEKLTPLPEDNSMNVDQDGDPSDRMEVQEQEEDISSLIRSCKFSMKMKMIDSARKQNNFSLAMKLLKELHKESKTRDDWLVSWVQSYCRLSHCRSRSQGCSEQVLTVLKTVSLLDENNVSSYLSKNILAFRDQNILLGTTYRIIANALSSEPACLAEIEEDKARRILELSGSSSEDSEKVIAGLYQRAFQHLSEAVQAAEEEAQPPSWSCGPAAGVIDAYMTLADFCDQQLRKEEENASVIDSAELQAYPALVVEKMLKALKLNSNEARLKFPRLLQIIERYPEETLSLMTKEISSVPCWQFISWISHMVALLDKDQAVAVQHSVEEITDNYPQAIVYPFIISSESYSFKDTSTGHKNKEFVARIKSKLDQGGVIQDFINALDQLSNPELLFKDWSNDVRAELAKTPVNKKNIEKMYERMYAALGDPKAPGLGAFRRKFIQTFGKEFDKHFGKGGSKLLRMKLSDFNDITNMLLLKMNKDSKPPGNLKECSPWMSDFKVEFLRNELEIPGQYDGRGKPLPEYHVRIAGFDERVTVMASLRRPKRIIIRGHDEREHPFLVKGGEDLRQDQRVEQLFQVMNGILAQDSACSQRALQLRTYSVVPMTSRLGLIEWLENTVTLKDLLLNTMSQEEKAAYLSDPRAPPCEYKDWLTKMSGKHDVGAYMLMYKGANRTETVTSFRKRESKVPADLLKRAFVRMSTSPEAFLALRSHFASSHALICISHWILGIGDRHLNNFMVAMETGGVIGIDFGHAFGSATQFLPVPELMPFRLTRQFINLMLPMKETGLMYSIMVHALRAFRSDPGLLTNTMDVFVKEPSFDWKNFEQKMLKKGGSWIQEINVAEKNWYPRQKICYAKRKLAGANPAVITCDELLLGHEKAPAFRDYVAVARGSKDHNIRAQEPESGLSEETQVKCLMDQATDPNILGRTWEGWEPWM
Sequence of Phosphatidylinositol 4,5-bisphosphate 3-kinase catalytic subunit alpha isoform (P42336 whole entry, canonical isoform): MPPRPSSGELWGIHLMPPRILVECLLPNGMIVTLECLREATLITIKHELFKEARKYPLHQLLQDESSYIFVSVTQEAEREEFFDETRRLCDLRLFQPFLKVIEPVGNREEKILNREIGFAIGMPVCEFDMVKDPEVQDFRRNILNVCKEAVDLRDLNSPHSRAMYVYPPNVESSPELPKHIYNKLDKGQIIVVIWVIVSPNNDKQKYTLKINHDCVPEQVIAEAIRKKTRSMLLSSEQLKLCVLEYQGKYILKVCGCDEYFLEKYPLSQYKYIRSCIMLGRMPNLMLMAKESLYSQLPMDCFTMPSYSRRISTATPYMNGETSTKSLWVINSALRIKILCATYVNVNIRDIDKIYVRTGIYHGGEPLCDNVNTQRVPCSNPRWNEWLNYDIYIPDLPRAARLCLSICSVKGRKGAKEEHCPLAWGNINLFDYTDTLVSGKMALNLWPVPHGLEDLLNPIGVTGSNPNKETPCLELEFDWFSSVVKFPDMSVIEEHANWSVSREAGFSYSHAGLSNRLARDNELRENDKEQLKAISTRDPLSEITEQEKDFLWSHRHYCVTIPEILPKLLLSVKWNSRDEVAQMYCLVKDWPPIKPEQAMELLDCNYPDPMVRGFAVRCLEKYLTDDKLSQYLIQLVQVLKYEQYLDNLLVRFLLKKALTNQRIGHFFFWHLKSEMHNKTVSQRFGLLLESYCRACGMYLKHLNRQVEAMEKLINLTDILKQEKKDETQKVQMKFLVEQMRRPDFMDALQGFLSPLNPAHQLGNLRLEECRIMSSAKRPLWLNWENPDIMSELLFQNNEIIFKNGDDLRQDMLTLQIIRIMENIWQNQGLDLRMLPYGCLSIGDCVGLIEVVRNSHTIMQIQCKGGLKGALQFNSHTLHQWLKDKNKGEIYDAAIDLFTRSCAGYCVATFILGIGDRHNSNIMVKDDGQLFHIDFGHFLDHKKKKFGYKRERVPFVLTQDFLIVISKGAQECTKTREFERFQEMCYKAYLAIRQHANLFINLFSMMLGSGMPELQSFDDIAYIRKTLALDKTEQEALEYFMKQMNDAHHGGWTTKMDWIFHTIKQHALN

`COc1ccc2oc(=O)cc(N3CCOCC3)c2c1` came in with a half-maximal inhibitory concentration (IC50) in series [1] of 1.2 µM.

With `O=c1cc(N2CCOCC2)oc2c(-c3cccc4c3oc3ccccc34)cccc12`, the IC50 in [1] was 0.041 µM.

On to `Cc1cc(C(C)Nc2ccccc2)c2nc(N3CCOCC3)cc(=O)n2c1` (stereo not drawn), for which the IC50 in series [2] is over 1 µM.

As for `O=c1cc(-c2ccccc2)oc2cc(N3CCOCC3)cc(O)c12`, the concentration for half-maximal inhibition (IC50) in series [3] is 0.034 µM.

Molecule `O=c1cc(N2CCOCC2)nc2c(-c3cccc4c3sc3ccccc34)cccn12` yielded an IC50 in [1] of 0.013 µM.

As to `Cc1ccc2c(=O)cc(N3CCOCC3)oc2c1-c1cccc2c1sc1ccccc12`, in series [1], the IC50 was 0.005 µM and 0.014 µM.

In the case of `O=C(c1ccc(O)cc1)c1ccc(N2CCOCC2)cc1O`, the IC50 in series [3] was 0.035 µM.

For `Oc1ccc2nc(-c3ccccc3)nc(N3CCOCC3)c2c1`, the IC50 in series [2] was found to be 1.3 µM.

Turning to `CNC(=O)Nc1ccc(-c2nc(N3CCOCC3)nc3c2cnn3C2CCOCC2)cc1`, half-maximal inhibition in series [4] (IC50) was put at 0.023 µM.

As to `CCn1nnc2c(N3CCOCC3)nc(-c3ccc(NC(=O)Nc4ccc(C(=O)N5CCN(C)CC5)cc4)cc3)nc21`, the IC50 is 0.003 µM in [4] and 0.01 µM in the series on MDA-MB-361. The bioavailability in series [5] turned out to be 88.6%.

In the case of `CN(C)C1CCN(C(=O)c2ccc(NC(=O)Nc3ccc(-c4nc(N5CCOCC5)nc(N5CCOCC5)n4)cc3)cc2)CC1` [GEDATOLISIB], the half-life in series [6] was 3.5 h.

Turning to `O=c1cc(N2CCOCC2)oc2c(-c3ccccc3)cccc12` [LY-294002], the results for the IC50 in series [7] and in [8] were 2.5 µM and 1.6 µM, respectively.

In [9], `Oc1cccc(-c2nc(N3CCOCC3)c3oc4ncccc4c3n2)c1` [PI-103] gave an IC50 of 0.083 µM.

In the case of `Cc1nc2c(-c3cnc(N)nc3)nc(N3CCOCC3)nc2n1C(C)C` [VS-5584], the bioavailability in series [10] is 100%. The molecule also gave a half-life in [11] of 10 h.

Usually IC50 stands for the midpoint of a concentration-inhibition curve. Broadly, the bioavailability is the share of a dose that reaches the circulation, judged against a reference dose that is usually intravenous. Read a low bioavailability as little systemic uptake. The term half-life denotes the time in which the quantity being followed falls by half. Read a high half-life as slow decline.
